Test results from ChEMBL document CHEMBL5537194, “Tight-Binding Small-Molecule Carboxylesterase 2 Inhibitors Reduce Intracellular Irinotecan Activation” (J Med Chem, 2024).

Columns and labels:
[1] = biological target: T1, CES2 (cocaine esterase) (Homo sapiens, UniProt O00748); assay: in vitro; conditions: recombinant CES2, probe CPT-11 (conversion to SN-38)
T1 sequence (O00748 whole entry): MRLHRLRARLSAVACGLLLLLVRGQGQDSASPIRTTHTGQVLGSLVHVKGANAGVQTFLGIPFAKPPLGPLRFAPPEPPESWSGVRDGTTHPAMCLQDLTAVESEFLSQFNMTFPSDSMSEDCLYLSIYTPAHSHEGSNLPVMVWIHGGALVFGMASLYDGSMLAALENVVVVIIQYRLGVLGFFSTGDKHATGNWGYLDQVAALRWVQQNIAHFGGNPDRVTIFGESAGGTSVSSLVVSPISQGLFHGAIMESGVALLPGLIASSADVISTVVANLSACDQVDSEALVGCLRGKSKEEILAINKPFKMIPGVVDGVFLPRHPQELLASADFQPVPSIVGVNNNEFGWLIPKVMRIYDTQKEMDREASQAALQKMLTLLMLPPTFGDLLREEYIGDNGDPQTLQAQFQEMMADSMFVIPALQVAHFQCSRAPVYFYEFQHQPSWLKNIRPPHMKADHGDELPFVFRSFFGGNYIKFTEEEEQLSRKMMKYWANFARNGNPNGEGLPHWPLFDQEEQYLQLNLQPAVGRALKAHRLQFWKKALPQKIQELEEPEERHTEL

[2] = biological target: T1, CES2 (cocaine esterase); assay: Inhibition of human recombinant CES2 activity assessed as fluorescence of the AP product using Benz-AP as substrate by measuring residual activity at 40 uM relative to control; conditions: recombinant CES2, probe Benz-AP
[3] = biological target: T2, Cocaine esterase (Homo sapiens, UniProt O00748); assay: Inhibition of human recombinant CES2 activity assessed as fluorescence of the AP product using Benz-AP as substrate
T2 sequence (O00748 whole entry): T1 sequence (O00748 whole entry)

[4] = Inhibition of human CES1 activity at 40 uM measured after 20 mins
[5] = system: PANC-1; assay: Cytotoxicity against human PANC-1 cells assessed as cell viability incubated for 14 days by crystal violet-based clonogenic assay; conditions: PANC-1, 336 h

| SMILES | inhibition at 10 min, 12 µM [1] [%] | activity at 40 µM [2] [%] | IC50 [3] [nM] | IC50 [4] [nM] | IC50 [5] [nM] |
| --- | --- | --- | --- | --- | --- |
| O=C(CSc1cn(CC(=O)N2CCCC2)c2ccccc12)Nc1ccc(F)cc1F | 91 | 0.9 | < 10 | – | – |
| Cc1ccc(Nc2nc(C(=O)NCc3ccccc3)cc3occc23)cc1 | 63 | 3 | < 10 | – | – |
| CCn1c(=O)c2sc(N3CCCC3)nc2n(CC(=O)Nc2cccc(Cl)c2C)c1=O | 51 | 37 | – | – | – |
| CCOc1ccc2ncc(S(=O)(=O)c3ccc(OC)cc3)c(N3CCC4(CC3)OCCO4)c2c1 | 94 | 1.3 | 66 | – | – |
| COc1cc2c(cc1OC)C(C)N(C(=O)c1cc3c(s1)-c1ccccc1S(=O)(=O)C3)CC2 (configuration not stated) | 31 | 13 | < 10 | – | – |
| CC(C)c1ccccc1OC(=O)NCCc1ccc2ccccc2c1 | – | – | – | 23 | – |
| Cc1ccc(CN2Cc3cc4ccc(C)c(C)c4nc3OC2=O)o1 | – | 0.2 | 18 | 61 | – |
| CCc1c2c(nc3ccc(OC(=O)N4CCC(N5CCCCC5)CC4)cc13)-c1cc3c(c(=O)n1C2)COC(=O)[C@]3(O)CC [IRINOTECAN] | – | – | – | – | 11000 |
| CC(C)CN1C(=O)CCc2cc(NC(=O)Cc3cccc(F)c3)ccc21 | 95 | -0.17 | 177 | – | – |
